Measurements as given in US5244895A, “Anti-ulcer agent” (Hidaka; Hiroyoshi, priority 1991, dated 1993).

Experiments:
[1] = Acute toxicity, oral administration; format: in vivo, Sle:ICR mouse (male); conditions: 300 mg/kg oral, 6 hours observation; for Mortality rate: deaths/mice
Experimental: (§1) Each test compound was administered to a male Sle:ICR mouse of 29 to 32 g body weight fasted for 18 to 20 hours (5 mice per group) to examine the presence of acute toxicity.

[2] = system: water immersion restriction stress ulcer; assay: Water immersion restriction stress ulcer, oral administration; format: in vivo, Crj:Wistar rat (male); conditions: 100 mg/kg oral; for Gastric damage index: 30 min before 6 h water immersion stress, control 15.7; for inhibition in vivo at 100 mg/kg: Rattus norvegicus, 6 h, read-out: Inhibition rate
Experimental: (§2) After the stress loading, the animal was killed by exsanguination and the cardia part of stomach was ligated and then 10 ml of 1% formalin was poured into the stomach and the stomach was extirpated. […] 0.5 ml/body weight of 1% pontamine sky blue physiological saline was injected intravenously 10 minutes before the slaughter. The test compound was administered after dissolved in physiological saline or in physiological saline containing Tween 80 added. Five […] of physiological saline was administered to the control group.

gastric juice secretion [3] = assay: Anti-gastric juice secretion test, intraduodenal administration (pylorus ligation); format: in vivo, Crj:Wistar rat (male); conditions: 100 mg/kg intraduodenal, 4 h after pylorus ligation; for pH of gastric juice: control 1.7; for Amount of gastric juice: control 2.6; for Free hydrochloric acid: control 116; for Total acidity: control 168
Experimental: Each 100 mg/kg of the test compounds was administered duodenally to a male Crj:Wistar rat of 205 to 240 g body weight fasted for ca. 24 hours (7 to 8 rats per group) and immediately after the dose the pylorus was ligated under diethyl ether anesthesia. Four hours after the ligation, the animal was killed and the stomach was isolated and the amount and the pH of gastric juice and free hydrochloric acid contained in it and the total acidity of it were measured to examine the effect of inhibiting gastric juice secretion. The test compounds were dosed after dissolved in physiological saline or in physiological saline containing Tween 80 added. Five […] of physiological saline was administered to the control group.

aspirin ulcer [4] = assay: Anti-aspirin ulcer test, oral administration; format: in vivo, Crj:Wistar rat (male); conditions: 100 mg/kg oral; for Gastric damage index: 30 min before aspirin 200 mg/kg oral, control 76.0; for Gastric damage index / inhibition in vivo at 100 mg/kg: 6 h; for inhibition in vivo at 100 mg/kg: Rattus norvegicus, read-out: Inhibition rate
Experimental: (§3) Each 100 mg/kg of the test compounds was administered orally to a male Crj:Wistar rat of 198 to 243 g body weight fasted for ca. 24 hours (7 to 8 rats per group) and 30 minutes after the administration 200 mg/5 ml/kg of aspirin suspended in 0.5% sodium CMC aqueous solution was administered orally. Six hours later the animals was killed by exsanguination and the cardia part of stomach was ligated and 10 ml of 1% formaline solution was poured into the stomach and the stomach was extirpated. Then, it was incised along the greater curvature side and washed with physiological saline and the major axis of the spotted and linear erosion and ulcer were measured under a steromicroscope and their total sum per head was calculated as the gastric damage index (mm) and the effect was judged by the inhibiting rate against the control group [(Gastric damage index of the control group-Gastric damage index of the test compound)/Gastric damage index of the control group×100]. 0.5 ml/body weight of 1% pontamine sky blue physiological saline was injected intravenously 10 minutes before the slaughter. The test compound was administered after dissolved in physiological saline or in physiological saline containing Tween 80 added. Five […] of physiological saline was administered to the control group.

gastric juice secretion [5] = assay: Anti-gastric juice secretion test, intraperitoneal administration (pylorus ligation); format: in vivo, Crj:Wistar rat (male); conditions: 100 mg/kg intraperitoneal, 30 min before pylorus ligation; for pH of gastric juice: control 1.7; for Amount of gastric juice: control 3.2; for Free hydrochloric acid: control 155; for Total acidity: control 208
[6] = Acute toxicity, intraperitoneal administration; format: in vivo, Sle:ICR mouse (male); conditions: 200 mg/kg intraperitoneal, 6 hours observation; for Mortality rate: deaths/mice
Experimental: as §1

aspirin ulcer [7] = assay: Anti-aspirin ulcer test, intraperitoneal administration; format: in vivo, Crj:Wistar rat (male); conditions: for Gastric damage index: 100 mg/kg intraperitoneal (abdominally injected), control 58.8; for Inhibition rate: gastric damage index vs control, 100 mg/kg intraperitoneal
Experimental: as §3
Each 100 mg/kg of the test compound was abdominally injected to a male Crj:Wistar rat of 210 to 265 g body weight fasted for ca. 24 hours (7 to 8 rats per group) and the procedures were carried out in a same manner as in oral administration.

[8] = system: water immersion restriction stress ulcer; assay: Water immersion restriction stress ulcer, intraperitoneal administration; format: in vivo, Crj:Wistar rat (male); conditions: 100 mg/kg intraperitoneal; for Gastric damage index: control 22.7; for Inhibition rate: gastric damage index vs control
Experimental: as §2

[9] = gastric damage index vs control, water immersion stress
[10] = gastric damage index vs control, aspirin 200 mg/kg

| Structure (SMILES) | General condition [1] | Mortality rate [1] | Gastric damage index [2] [mm] | inhibition in vivo at 100 mg/kg [2, 9] [%] | pH of gastric juice (gastric juice secretion [3]) | Amount of gastric juice (gastric juice secretion [3]) [ml/100 g body weight] | Free hydrochloric acid (gastric juice secretion [3]) [μEq/100 g body weight] | Total acidity (gastric juice secretion [3]) [μEq/100 g body weight] | Gastric damage index (aspirin ulcer [4]) [mm] | inhibition in vivo at 100 mg/kg (aspirin ulcer [4]; [10]) [%] | pH of gastric juice (gastric juice secretion [5]) | Amount of gastric juice (gastric juice secretion [5]) [ml/100 g body weight] | Free hydrochloric acid (gastric juice secretion [5]) [μEq/100 body weight] | Total acidity (gastric juice secretion [5]) [μEq/100 body weight] | General condition [6] | Mortality rate [6] | Gastric damage index (aspirin ulcer [7]) [mm] | Inhibition rate (aspirin ulcer [7]) [%] | Gastric damage index [8] [mm] | Inhibition rate [8] [%] | other results |
| --- | --- | --- | --- | --- | --- | --- | --- | --- | --- | --- | --- | --- | --- | --- | --- | --- | --- | --- | --- | --- | --- |
| CN(C(Cc1ccc(O)cc1)CN1CCN(C(=O)OCc2ccccc2)CC1)S(=O)(=O)c1cccc2cnccc12 (stereo not drawn) [(4), N-[2-(4-benzyloxycarbonylpiperazinyl)-1-(p-hydroxybenzyl)ethyl]-N-methyl-5-isoquinoline sulfonamide] | No abnormality | 0/5 | 8.4 | 46 | 2.3 | 1.8 | 36 | 74 | 34.6 | 55 | – | – | – | – | – | – | – | – | – | – | – |
| COc1ccc(CC(CN2CCN(C(=O)OCc3ccccc3)CC2)N(C)S(=O)(=O)c2cccc3cnccc23)cc1 (stereo not drawn) [(5), N-[2-(4-benzyloxycarbonylpiperazinyl)-1-(p-methoxybenzyl)ethyl]-N-methyl-5-isoquinoline sulfonamide] | No abnormality | 0/5 | 7.7 | 51 | 2.3 | 1.8 | 48 | 80 | 36.5 | 53 | – | – | – | – | – | – | – | – | – | – | – |
| CN(C(Cc1ccc(O)cc1)CN1CCCN(C(=O)OCc2ccccc2)CC1)S(=O)(=O)c1cccc2cnccc12 (stereo not drawn) [(14), N-[2-(4-benzyloxycarbonylhomopiperazinyl)-1-(p-hydroxybenzyl)ethyl]-N-methyl-5-isoquinoline sulfonamide] | No abnormality | 0/5 | 4.3 | 73 | 3.1 | 0.6 | 8 | 11 | 11.2 | 85 | 3.0 | 0.6 | 4 | 17 | No abnormality | 0/5 | 5.3 | 91 | 3.9 | 83 | – |
| COc1ccc(CC(CN2CCCN(C(=O)OCc3ccccc3)CC2)N(CCN)S(=O)(=O)c2cccc3cnccc23)cc1 (stereo not drawn) [(15), N-[2-(4-benzyloxycarbonylhomopiperazinyl)-1-(p-methoxybenzyl)ethyl]-N-(2-aminoethyl)-5-isoquinoline sulfonamide] | – | 0/5 | 6.6 | – | 2.6 | 1.1 | 22 | 43 | 35.8 | – | 2.6 | 1.3 | 36 | 74 | – | 0/5 | 11.8 | 80 | 6.6 | 71 | Inhibition rate [2, 9]: 58%; Inhibition rate (aspirin ulcer [4]; [10]): 64% |
| COc1ccc(CC(CN2CCCN(C(=O)OCc3ccccc3)CC2)N(CCN(C)C)S(=O)(=O)c2cccc3cnccc23)cc1 (stereo not drawn) [(16), N-[2-(4-benzyloxycarbonylhomopiperazinyl)-1-(p-methoxybenzyl)ethyl]-N-(2-dimethylaminoethyl)-5-isoquinoline sulfonamide] | No abnormality | 0/5 | 4.6 | 70 | 2.9 | 0.9 | 11 | 29 | 17.0 | 78 | 2.9 | 0.6 | 8 | 24 | No abnormality | 0/5 | 10.6 | 82 | 5.4 | 76 | – |
